The source made the active and inactive calls. No cut-off for these calls is given here. Non-standard residues stand in square brackets, D forms with d. Residues, ends and D or L forms follow the SMILES beside them. Phe(2,6-Me2,4-CONH2) = Cc1cc(C(N)=O)cc(C)c1C[C@H](N)C(=O)O; Dmt = Cc1cc(O)cc(C)c1C[C@H](N)C(=O)O; Tic = O=C(O)[C@@H]1Cc2ccccc2CN1
How the values were obtained:
[1] = target: Delta-type opioid receptor (Mus musculus) (UniProt P32300); test: Antagonist activity at delta opioid receptor in mouse vas deferens assessed as inhibition of DPDPE-stimulated muscle contraction; format: functional, tissue-based
Sequence of Delta-type opioid receptor (Mus musculus) (P32300 whole entry): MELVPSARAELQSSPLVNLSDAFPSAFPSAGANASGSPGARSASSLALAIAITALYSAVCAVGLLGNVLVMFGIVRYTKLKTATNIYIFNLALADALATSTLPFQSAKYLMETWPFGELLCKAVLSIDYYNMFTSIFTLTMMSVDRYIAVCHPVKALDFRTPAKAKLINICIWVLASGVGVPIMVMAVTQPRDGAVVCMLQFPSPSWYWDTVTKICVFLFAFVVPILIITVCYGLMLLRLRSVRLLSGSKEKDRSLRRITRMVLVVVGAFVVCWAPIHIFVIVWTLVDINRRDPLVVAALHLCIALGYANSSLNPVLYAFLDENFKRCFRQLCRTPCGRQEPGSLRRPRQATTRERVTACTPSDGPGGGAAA

[2] = target: Delta-type opioid receptor (Rattus norvegicus, UniProt P33533); test: Displacement of [3H]DSLET from delta opioid receptor in rat brain membrane; format: cell membranes
Sequence of Delta-type opioid receptor (P33533 whole entry): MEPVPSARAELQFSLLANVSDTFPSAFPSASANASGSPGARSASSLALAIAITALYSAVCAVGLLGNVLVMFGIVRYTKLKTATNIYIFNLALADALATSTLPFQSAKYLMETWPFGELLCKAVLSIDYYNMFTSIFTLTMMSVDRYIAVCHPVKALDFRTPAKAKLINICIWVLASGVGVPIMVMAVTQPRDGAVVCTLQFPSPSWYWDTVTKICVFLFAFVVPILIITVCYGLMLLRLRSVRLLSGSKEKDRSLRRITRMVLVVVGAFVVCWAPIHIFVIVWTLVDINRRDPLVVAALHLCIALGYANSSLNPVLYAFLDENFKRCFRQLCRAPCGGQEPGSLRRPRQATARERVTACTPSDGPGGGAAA

Mu-type opioid receptor [3] = target: Mu-type opioid receptor (Rattus norvegicus, UniProt P33535); test: Displacement of [3H]DAMGO from mu opioid receptor in rat brain membrane; format: cell membranes
Sequence of Mu-type opioid receptor (Rattus norvegicus, UniProt P33535) (P33535 whole entry): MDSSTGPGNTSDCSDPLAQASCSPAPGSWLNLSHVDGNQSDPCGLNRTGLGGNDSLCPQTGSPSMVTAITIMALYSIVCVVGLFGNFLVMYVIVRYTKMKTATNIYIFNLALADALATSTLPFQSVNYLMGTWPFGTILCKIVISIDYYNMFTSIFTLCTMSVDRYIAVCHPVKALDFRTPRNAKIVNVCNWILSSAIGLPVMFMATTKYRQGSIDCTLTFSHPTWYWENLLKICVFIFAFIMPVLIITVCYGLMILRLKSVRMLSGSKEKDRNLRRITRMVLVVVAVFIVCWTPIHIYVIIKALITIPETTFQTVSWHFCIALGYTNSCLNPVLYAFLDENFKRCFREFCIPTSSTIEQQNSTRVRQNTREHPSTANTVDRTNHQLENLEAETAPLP

[4] = target: Kappa-type opioid receptor (Cavia porcellus, UniProt P41144); test: Displacement of [3H]U69-593 from kappa opioid receptor in guinea pig brain membrane; format: cell membranes
Sequence of Kappa-type opioid receptor (P41144 whole entry): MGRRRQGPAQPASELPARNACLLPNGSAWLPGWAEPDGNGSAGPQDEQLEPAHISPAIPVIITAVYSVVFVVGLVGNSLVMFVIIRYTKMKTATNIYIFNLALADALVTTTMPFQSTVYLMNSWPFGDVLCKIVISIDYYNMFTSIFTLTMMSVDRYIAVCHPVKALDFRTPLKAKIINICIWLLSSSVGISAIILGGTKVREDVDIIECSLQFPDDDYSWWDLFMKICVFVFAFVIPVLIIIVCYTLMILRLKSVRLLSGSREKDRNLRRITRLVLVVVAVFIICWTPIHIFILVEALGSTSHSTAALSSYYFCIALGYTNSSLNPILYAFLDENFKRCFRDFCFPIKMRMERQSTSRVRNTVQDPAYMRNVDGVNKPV

Mu-type opioid receptor [5] = target: Mu-type opioid receptor (Cavia porcellus, UniProt P97266); test: Agonist activity at mu opioid receptor in guinea pig ileum assessed as effect on muscle contraction; format: functional, tissue-based
Sequence of Mu-type opioid receptor (Cavia porcellus, UniProt P97266) (P97266 whole entry): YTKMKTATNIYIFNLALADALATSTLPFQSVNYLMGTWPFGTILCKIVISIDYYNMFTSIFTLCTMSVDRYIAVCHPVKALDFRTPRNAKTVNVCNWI

[6] = target: Mu-type opioid receptor (Cavia porcellus) (UniProt P97266); test: Antagonist activity at mu opioid receptor in guinea pig ileum assessed as inhibition of […]; format: functional, tissue-based
Sequence of Mu-type opioid receptor (Cavia porcellus) (P97266 whole entry): as above

Row | SMILES | Ke [1] [nM] | Ki [2] [nM] | Ki (Mu-type opioid receptor [3]) [nM] | Ki [4] [nM] | IC50 (Mu-type opioid receptor [5]) | Ke [6] | IC50 (Mu-type opioid receptor [5]; read-out: IC50) [nM]
1 | Cc1cc(C(=O)NCCc2ccc(-c3ccccc3)cc2)cc(C)c1C[C@H](N)C(=O)N1Cc2ccccc2C[C@H]1C(=O)O | 1.76 | – | – | – | – | – | –
2 | N[C@@H](Cc1ccc(C(=O)NCCc2ccc(-c3ccccc3)cc2)cc1)C(=O)N1Cc2ccccc2C[C@H]1C(=O)N[C@@H](Cc1ccccc1)C(=O)O | 18.7 | – | – | – | – | – | –
3 | N[C@@H](Cc1ccc(C(=O)NCCc2ccc(-c3ccccc3)cc2)cc1)C(=O)N1Cc2ccccc2C[C@H]1C(=O)O | 17.8 | – | – | – | – | – | –
4 | N[C@@H](Cc1ccc(O)cc1)C(=O)N1Cc2ccccc2C[C@H]1C(=O)O (H-Tyr-[Tic]-OH) | 263 | 242 | > 1000 | > 10000 | Not Active | inactive | –
5 | N[C@@H](Cc1ccc(O)cc1)C(=O)N1Cc2ccccc2C[C@H]1C(=O)N[C@@H](Cc1ccccc1)C(=O)N[C@@H](Cc1ccccc1)C(=O)O (H-Y[Tic]FF-OH) | – | – | – | > 1000 | – | – | > 10000
6 | Cc1cc(O)cc(C)c1C[C@H](N)C(=O)N1Cc2ccccc2C[C@H]1C(=O)O (H-[Dmt]-[Tic]-OH) | – | – | 1360 | > 1000 | Not Active | inactive | –
7 | Cc1cc(O)cc(C)c1C[C@H](N)C(=O)N1Cc2ccccc2C[C@H]1C(=O)N[C@@H](Cc1ccccc1)C(=O)N[C@@H](Cc1ccccc1)C(=O)O (H-[Dmt][Tic]FF-OH) | 0.196 | – | – | > 1000 | – | – | 769
8 | Cc1cc(C(N)=O)cc(C)c1C[C@H](N)C(=O)N1Cc2ccccc2C[C@H]1C(=O)N[C@@H](Cc1ccccc1)C(=O)N[C@@H](Cc1ccccc1)C(=O)O (H-[Phe(2,6-Me2,4-CONH2)][Tic]FF-OH) | 0.627 | 0.501 | – | > 1000 | – | – | –

Reference: ChEMBL document CHEMBL1154618, “Agonist vs antagonist behavior of delta opioid peptides containing novel phenylalanine analogues in place of Tyr(1)” (J Med Chem, 2009)
